From patent US20100009967A1, “SOLID DOSAGE FORMULATIONS OF T[…]” (priority 2008, published 2010)

Assays:
[1] = 25° C./75% relative humidity
CGRP [2] = details: control group, Petersen et al. 2005; cited from earlier work
CGRP [3] = details: clinical trials, Olesen et al. 2004; cited from earlier work

Compound | Water content [1] | prevention of headache induced by CGRP infusion (CGRP [2]) | efficacy in treating acute attacks of migraine (CGRP [3])
O=C(N[C@@H]1CC[C@@H](c2cccc(F)c2F)CN(CC(F)(F)F)C1=O)N1CCC(n2c(=O)[nH]c3ncccc32)CC1 [spray-dried amorphous form] | 18% | – | –
BIBN4096BS | – | able to prevent headache induced by CGRP infusion | effective in treating acute attacks of migraine
